Assay results reported in patent publication US7053177B1, “Random peptides that bind to gastro-intestinal tract (GIT) transport receptors and related methods” (Cytogen Corporation, priority 1997, dated 2006).
Peptide text beside a SMILES is read from it. * marks the point of attachment. Dansyl = CN(C)c1cccc2c(S(=O)(=O)*)cccc12; K(dns) = dansyl-lysine

System: P100 membrane fraction of Caco-2 cells
Test: Dansylated peptide ELISA: relative binding of PAX2 and HAX42 peptides to P100 fractions (ratio to ZElan021)
Details: ratio to ZElan021 = 1.00
Procedure: The peptides and proteins were analyzed by a dansylated peptide ELISA method in which 96 well plates were coated overnight at 4° C. with 100 μl/well coating protein (normally 100 μg/ml P100 membrane fraction) in 0.05M carbonate buffer pH9.6. Nonspecific binding was blocked using 200 μl/well, 2% Marvel/PBS for 2 hours at 37° C. prior to incubation with dansylated peptides. The plates were washed three times with PBS/0.05% Tween 20 and after each subsequent incubation step. […] A buffer blank control was included to ensure that background binding to plastic was not due to the antibodies used in the assay system. […] Plates were developed using 75 μl/well Bionostics TMB substrate and incubated for approximately 10 minutes. The developing reaction was stopped using Bionostics Red Stop solution (25 μl/well), and the optical density of the plates was read at 650 nm. […]

`CC(C)C[C@H](NC(=O)[C@H](CCCNC(=N)N)NC(=O)[C@H](CO)NC(=O)[C@@H](NC(=O)[C@H](CCCCN)NC(=O)[C@H](CC(N)=O)NC(=O)[C@H](CCCNC(=N)N)NC(=O)[C@@H](NC(=O)[C@H](CC(N)=O)NC(=O)[C@H](CCCNC(=N)N)NC(=O)[C@@H](N)CCCCNS(=O)(=O)c1cccc2c(N(C)C)cccc12)[C@@H](C)O)[C@@H](C)O)C(=O)N[C@@H](CO)C(=O)N[C@@H](C)C(=O)N[C@@H](CC(N)=O)C(=O)N1CCC[C@H]1C(=O)N[C@@H](Cc1c[nH]cn1)C(=O)N[C@@H](CCCNC(=N)N)C(=O)N[C@@H](CO)C(=O)N[C@@H](Cc1c[nH]cn1)C(=O)N[C@@H](CCCNC(=N)N)C(N)=O` [ZElan084] (H-K(Dansyl)RNTRNKTSRLSANPHRSHR-NH2) was tested, and the “Binding value at 20 μg/ml” value (PAX2 peptides, second column) was 0.93 and the “Binding value at 50 μg/ml” value (PAX2 peptides, second column) was 0.77.
With `CC(C)C[C@H](NC(=O)[C@H](CCCNC(=N)N)NC(=O)[C@H](CCCNC(=N)N)NC(=O)[C@H](CC(N)=O)NC(=O)[C@H](Cc1c[nH]cn1)NC(=O)[C@H](CO)NC(=O)[C@H](CO)NC(=O)[C@@H](N)CCCCNS(=O)(=O)c1cccc2c(N(C)C)cccc12)C(=O)N[C@@H](CCCNC(=N)N)C(=O)N[C@H](C(=O)N[C@@H](CCCNC(=N)N)C(N)=O)[C@@H](C)O` [ZElan035] (H-K(Dansyl)SSHNRRLRTR-NH2) the “Binding value at 20 μg/ml” value (PAX2 peptides, first column) was 0.12, the “Binding value at 20 μg/ml” value (PAX2 peptides, second column) was 0.43 and the “Binding value at 50 μg/ml” value (PAX2 peptides, first column) was 0.81. For the same compound, the “Binding value at 50 μg/ml” value (PAX2 peptides, second column) was 0.77.
With H2N—K(dns)PGDYNCCGNGNSTG [ZElan091] the “Binding value at 25 μg/ml” value (HAX42 peptides, first column) was 2.02, the “Binding value at 25 μg/ml” value (HAX42 peptides, second column) was 1.37 and the “Binding value at 25 μg/ml” value (HAX42 peptides, third column) was 1.20.
With `CC(C)C[C@H](NC(=O)[C@H](CCCNC(=N)N)NC(=O)[C@H](CCCNC(=N)N)NC(=O)[C@@H](N)CCCCNS(=O)(=O)c1cccc2c(N(C)C)cccc12)C(=O)N[C@@H](CCCNC(=N)N)C(=O)N[C@H](C(=O)N[C@@H](CCCNC(=N)N)C(N)=O)[C@@H](C)O` [ZElan058, H2N-K(dns)RRLRTR-CONH2] (H-K(Dansyl)RRLRTR-NH2) the “Binding value at 20 μg/ml” value (PAX2 peptides, first column) was 0.05, the “Binding value at 50 μg/ml” value (PAX2 peptides, first column) was 0.47 and the “Binding value at 50 μg/ml” value (PAX2 peptides, second column) was 0.16.
In the case of `CC(C)C[C@H](NC(=O)[C@H](CCCNC(=N)N)NC(=O)[C@H](CCCNC(=N)N)NC(=O)[C@H](CC(N)=O)NC(=O)[C@H](Cc1c[nH]cn1)NC(=O)[C@H](CO)NC(=O)[C@H](CO)NC(=O)[C@H](Cc1c[nH]cn1)NC(=O)[C@H](CCCCN)NC(=O)[C@H](C)NC(=O)[C@H](CC(N)=O)NC(=O)[C@@H](NC(=O)[C@@H](N)CCCCNS(=O)(=O)c1cccc2c(N(C)C)cccc12)[C@@H](C)O)C(=O)N[C@@H](CCCNC(=N)N)C(=O)N[C@H](C(=O)N[C@@H](CCCNC(=N)N)C(=O)N[C@@H](CO)C(=O)N[C@@H](CCCNC(=N)N)C(=O)N1CCC[C@H]1C(=O)N[C@@H](CC(N)=O)C(N)=O)[C@@H](C)O` [ZElan032] (H-K(Dansyl)TNAKHSSHNRRLRTRSRPN-NH2), the “Binding value at 50 μg/ml” value (PAX2 peptides, first column) is reported as 0.95.
For “H2N—K(dns)SDNAKEPGDYNCCGNGNSTG ({K(dns)}-SDNAKEPGDYNCCGNGNSTG-NH2; cysteine pairing not given here) [ZElan088]”, the “Binding value at 25 μg/ml” value (HAX42 peptides, first column) was 2.21, the “Binding value at 25 μg/ml” value (HAX42 peptides, second column) was 1.41 and the “Binding value at 25 μg/ml” value (HAX42 peptides, third column) was 1.63.
With `CC(C)C[C@H](NC(=O)[C@H](CCCNC(=N)N)NC(=O)[C@H](CCCNC(=N)N)NC(=O)[C@H](CC(N)=O)NC(=O)[C@H](C)NC(=O)[C@H](CO)NC(=O)[C@H](CO)NC(=O)[C@@H](N)CCCCNS(=O)(=O)c1cccc2c(N(C)C)cccc12)C(=O)N[C@@H](CCCNC(=N)N)C(=O)N[C@H](C(=O)N[C@@H](CCCNC(=N)N)C(N)=O)[C@@H](C)O` [ZElan075] (H-K(Dansyl)SSANRRLRTR-NH2) the “Binding value at 20 μg/ml” value (PAX2 peptides, first column) was 0.13, the “Binding value at 50 μg/ml (Jackson Ab)” value (PAX2 peptides) was 0.47 and the “Binding value at 50 μg/ml (Southern Ab)” value (PAX2 peptides) was 0.32. The “Binding value at 50 μg/ml” value (PAX2 peptides, first column) was 0.52 and the “Binding value at 50 μg/ml” value (PAX2 peptides, second column) was 0.38.
For `CC(C)C[C@H](NC(=O)[C@H](C)NC(=O)[C@H](Cc1c[nH]cn1)NC(=O)[C@H](CC(=O)O)NC(=O)[C@H](CO)NC(=O)[C@@H](N)CCCCNS(=O)(=O)c1cccc2c(N(C)C)cccc12)C(=O)NCC(=O)N[C@H](C(=O)N[C@@H](CC(N)=O)C(=O)N[C@@H](CC(C)C)C(=O)N[C@@H](CCCNC(=N)N)C(=O)N[C@@H](CO)C(=O)N[C@@H](CC(=O)O)C(=O)N[C@@H](CC(N)=O)C(=O)N[C@@H](C)C(=O)N[C@@H](CCCCN)C(=O)N[C@@H](CCC(=O)O)C(=O)N1CCC[C@H]1C(=O)NCC(N)=O)[C@@H](C)O` [ZElan062] (H-K(Dansyl)SDHALGTNLRSDNAKEPG-NH2), the “Binding value at 20 μg/ml” value (HAX42 peptides) was 0.11, the “Binding value at 50 μg/ml” value (HAX42 peptides, first column) was 0.42 and the “Binding value at 50 μg/ml” value (HAX42 peptides, second column) was 0.34.
With `CC(C)[C@H](NC(=O)[C@H](CCCCN)NC(=O)[C@H](CCCNC(=N)N)NC(=O)[C@@H](N)CCCCNS(=O)(=O)c1cccc2c(N(C)C)cccc12)C(=O)N[C@@H](Cc1ccccc1)C(=O)N[C@@H](CC(N)=O)C(=O)N[C@@H](CCCNC(=N)N)C(=O)N[C@@H](CCCNC(=N)N)C(=O)N[C@@H](CCCNC(=N)N)C(=O)N1CCC[C@H]1C(=O)N[C@@H](CO)C(N)=O` [ZElan065] (H-K(Dansyl)RKVFNRRRPS-NH2) the “Binding value at 20 μg/ml” value (HAX42 peptides) was 0.00, the “Binding value at 50 μg/ml” value (HAX42 peptides, first column) was 0.54 and the “Binding value at 50 μg/ml” value (HAX42 peptides, second column) was 0.30.
`CC(C)C[C@H](NC(=O)[C@H](CCCNC(=N)N)NC(=O)[C@H](CCCNC(=N)N)NC(=O)[C@@H](N)CCCCNS(=O)(=O)c1cccc2c(N(C)C)cccc12)C(=O)N[C@@H](CCCNC(=N)N)C(=O)N[C@H](C(=O)N[C@@H](CCCNC(=N)N)C(=O)N[C@@H](CO)C(=O)N[C@@H](CCCNC(=N)N)C(=O)N1CCC[C@H]1C(=O)N[C@@H](CC(N)=O)C(N)=O)[C@@H](C)O` [ZElan056] (H-K(Dansyl)RRLRTRSRPN-NH2) was tested, and the “Binding value at 20 μg/ml” value (PAX2 peptides, first column) was 0.00, the “Binding value at 20 μg/ml” value (PAX2 peptides, second column) was 0.16 and the “Binding value at 50 μg/ml” value (PAX2 peptides, first column) was 0.21. For the same compound, the “Binding value at 50 μg/ml” value (PAX2 peptides, second column) was 0.21.
“H2N—K(dns)PGDYNCCGNG ({K(dns)}-PGDYNCCGNG-NH2; cysteine pairing not given here) [ZElan092]” was tested, and the “Binding value at 25 μg/ml” value (HAX42 peptides, first column) was 1.41, the “Binding value at 25 μg/ml” value (HAX42 peptides, second column) was 1.90 and the “Binding value at 25 μg/ml” value (HAX42 peptides, third column) was 0.91.
In the case of `CC(C)C[C@H](NC(=O)[C@H](C)NC(=O)[C@H](CCCNC(=N)N)NC(=O)[C@H](CC(N)=O)NC(=O)[C@H](Cc1c[nH]cn1)NC(=O)[C@H](CO)NC(=O)[C@H](CO)NC(=O)[C@@H](N)CCCCNS(=O)(=O)c1cccc2c(N(C)C)cccc12)C(=O)N[C@@H](CCCNC(=N)N)C(=O)N[C@H](C(=O)N[C@@H](CCCNC(=N)N)C(N)=O)[C@@H](C)O` [ZElan078] (H-K(Dansyl)SSHNRALRTR-NH2), the “Binding value at 20 μg/ml” value (PAX2 peptides, first column) is reported as 0.11, the “Binding value at 50 μg/ml (Jackson Ab)” value (PAX2 peptides) is reported as 0.68 and the “Binding value at 50 μg/ml (Southern Ab)” value (PAX2 peptides) is reported as 0.47. The “Binding value at 50 μg/ml” value (PAX2 peptides, first column) was 0.87 and the “Binding value at 50 μg/ml” value (PAX2 peptides, second column) was 0.69.
With `CC[C@H](C)[C@H](NC(=O)[C@H](C)NC(=O)[C@H](CO)NC(=O)[C@@H]1CCCN1C(=O)[C@H](CCCNC(=N)N)NC(=O)[C@H](CCCNC(=N)N)NC(=O)[C@H](CC(N)=O)NC(=O)[C@H](Cc1ccccc1)NC(=O)[C@@H](NC(=O)[C@H](CCCCN)NC(=O)[C@H](CCCNC(=N)N)NC(=O)CNC(=O)[C@@H](NC(=O)[C@H](CO)NC(=O)[C@H](CC(N)=O)NC(=O)CNC(=O)[C@H](CC(N)=O)NC(=O)CNC(=O)[C@H](CS)NC(=O)[C@H](CS)NC(=O)[C@H](CC(N)=O)NC(=O)[C@H](Cc1ccc(O)cc1)NC(=O)[C@H](CC(=O)O)NC(=O)CNC(=O)[C@@H]1CCCN1C(=O)[C@@H](N)CCCCNS(=O)(=O)c1cccc2c(N(C)C)cccc12)[C@@H](C)O)C(C)C)C(=O)N1CCC[C@H]1C(=O)N[C@H](C(N)=O)[C@@H](C)O` [ZElan072] (H-K(Dansyl)PGDYNCCGNGNSTGRKVFNRRPSAIPT-NH2) the “Binding value at 20 μg/ml” value (HAX42 peptides) was 0.83, the “Binding value at 50 μg/ml” value (HAX42 peptides, first column) was 0.61 and the “Binding value at 50 μg/ml” value (HAX42 peptides, second column) was 0.88.
In the case of `CC(C)C[C@H](NC(=O)[C@H](CC(N)=O)NC(=O)[C@@H](N)CCCCNS(=O)(=O)c1cccc2c(N(C)C)cccc12)C(=O)N[C@@H](CCCNC(=N)N)C(=O)N[C@@H](CO)C(=O)N[C@@H](CC(=O)O)C(=O)N[C@@H](CC(N)=O)C(=O)N[C@@H](C)C(=O)N[C@@H](CCCCN)C(=O)N[C@@H](CCC(=O)O)C(=O)N1CCC[C@H]1C(=O)NCC(=O)N[C@@H](CC(=O)O)C(=O)N[C@@H](Cc1ccc(O)cc1)C(=O)N[C@@H](CC(N)=O)C(=O)N[C@@H](CS)C(=O)N[C@@H](CS)C(=O)NCC(=O)N[C@@H](CC(N)=O)C(=O)NCC(=O)N[C@@H](CC(N)=O)C(=O)N[C@@H](CO)C(=O)N[C@H](C(=O)NCC(=O)N[C@@H](CCCNC(=N)N)C(=O)N[C@@H](CCCCN)C(=O)N[C@H](C(=O)N[C@@H](Cc1ccccc1)C(=O)N[C@@H](CC(N)=O)C(=O)N[C@@H](CCCNC(=N)N)C(N)=O)C(C)C)[C@@H](C)O` [ZElan071] (H-K(Dansyl)NLRSDNAKEPGDYNCCGNGNSTGRKVFNR-NH2), the “Binding value at 50 μg/ml” value (HAX42 peptides, first column) is reported as 0.89 and the “Binding value at 50 μg/ml” value (HAX42 peptides, second column) is reported as 0.75.
